Test results from PubChem BioAssay (NCI).
Values joined by “and” are separate entries in the source; they are usually repeats but may differ in a detail not shown here. Equal entries are not always repeated.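 Assay format: 96-well plates, 48-hour exposure. The concentration for 50% growth inhibition is given as GI50. TGI marks complete inhibition of growth.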

How the values were obtained:
Experiment in all cases: NCI tumour cell line growth inhibition, 48 h
HOP-62 NSCLC = test system: HOP-62 NSCLC
K-562 leukemia = test system: K-562 leukemia
MDA-MB-435 = test system: MDA-MB-435
SN12C renal = test system: SN12C renal
RXF 393 renal = test system: RXF 393 renal
MCF7 breast = test system: MCF7 breast
CAKI-1 renal = test system: CAKI-1 renal
MOLT-4 leukemia = test system: MOLT-4 leukemia
PC-3 prostate = test system: PC-3 prostate
ACHN renal = test system: ACHN renal

SMILES | GI50 (HOP-62 NSCLC) | TGI (HOP-62 NSCLC) | GI50 (K-562 leukemia) | TGI (K-562 leukemia) | GI50 (MDA-MB-435) | TGI (MDA-MB-435) | GI50 (SN12C renal) | TGI (SN12C renal) | GI50 (RXF 393 renal) | TGI (RXF 393 renal) | GI50 (MCF7 breast) | TGI (MCF7 breast) | GI50 (CAKI-1 renal) | TGI (CAKI-1 renal) | GI50 (MOLT-4 leukemia) | TGI (MOLT-4 leukemia) | GI50 (PC-3 prostate) | TGI (PC-3 prostate) | GI50 (ACHN renal) | TGI (ACHN renal)
OC1CCCC2CCC[N-]C12.OC1CCCC2CCC[N-]C12.[O]=[V][OH] (stereo unspecified) | 7.15 µM | > 100 µM | 1.93 µM | 14.4 µM | 7.44 µM | > 100 µM | 5.91 µM | > 100 µM | 15.6 µM | 35.4 µM | 2.87 µM | 10.1 µM | 21.9 µM | 85.3 µM | 1.23 µM | 10.6 µM | 2.59 µM | 8.63 µM | 8.21 µM | > 100 µM
O=C(Nc1cc(Cl)ccc1O)c1ccccc1Nc1ccnc(C(F)(F)F)c1 | 2.16 µM | 5.21 µM | 3.65 µM | > 100 µM | 3.33 µM | 11.3 µM | 2.84 µM | 10.7 µM | 2.77 µM | 10.6 µM | 2.75 µM | 11.6 µM | 2.24 µM | 7.34 µM | 2.52 µM | 6.94 µM | 2.84 µM | > 100 µM | 3.35 µM | > 100 µM
O=C1Cc2cc(CCn3cncn3)c(Cl)cc2N1 | 29.9 µM | > 100 µM | 7.68 µM | > 100 µM | 3.22 µM | > 100 µM | > 100 µM | > 100 µM | 7.48 µM | > 100 µM | 4.02 µM | > 100 µM | 8.33 µM | > 100 µM | > 100 µM | > 100 µM | > 100 µM | > 100 µM | > 100 µM | > 100 µM
O=C(Nc1cc(Cl)ccc1O)c1cccc(Nc2ccnc(C(F)(F)F)c2)c1 | 4.4 µM | 23.5 µM | 0.713 µM | 12.4 µM | 2.83 µM | 12.2 µM | 3.36 µM | 25.5 µM | 11 µM | 29.1 µM | 2 µM | 17.9 µM | 2.61 µM | 12.7 µM | 1.54 µM | 4.73 µM | 2.29 µM | 11.6 µM | 2.13 µM | 81.2 µM
COc1ccc2c(O)c(/C=C3\N=Nc4ncccc43)oc2c1C[C@@H]1CCNC[C@H]1F | 0.336 µM | 2.94 µM | 0.442 µM | 1.79 µM | 1.21 µM | 2.79 µM | 0.458 µM | 2.22 µM | 0.253 µM | 0.984 µM | 0.118 µM | 1.09 µM | 0.848 µM | 6.47 µM | 0.181 µM | 0.544 µM | 0.53 µM | 3.62 µM | 0.51 µM | 2.83 µM
Cc1c2ccncc2c(C)c2c1sc1ccccc12 | – | 21.9 µM | – | 41.1 µM | – | 39.3 µM | – | 23.8 µM | – | 23.9 µM | – | 18.1 µM | – | 27.9 µM | – | 7.28 µM | – | 26.4 µM | – | 15.7 µM
CNC(=O)c1c(F)cccc1Nc1nc(Nc2cc3c(cc2OC)CCN3C(=O)CN(C)C)nc2[nH]ccc12 | 5.5 µM | 20.8 µM | 2.58 µM | 6.41 µM | 1.4 µM | 3.51 µM | 3.88 µM | 9.81 µM | 1.8 µM | 3.6 µM | 0.359 µM | 2.88 µM | 16.1 µM | 45.7 µM | 3.01 µM | > 24.7 µM | 6.25 µM | 39.9 µM | 8.8 µM | 23.1 µM
O=C1NC2(CCCCC2)C(=O)N1CCN(CCCl)CCCl | > 25 µM | > 25 µM and 149 µM | > 25 µM | > 250 µM | – | > 25 µM | > 25 µM | > 250 µM | > 25 µM and 99.2 µM | > 25 µM and 202 µM | > 25 µM | > 250 µM | 19.5 µM | 25 µM and 175 µM | 7.1 µM | 22.5 µM and 196 µM | – | > 25 µM | – | 25 µM
Cc1nc2sc3c(N)ncnc3c2c(C)c1C | > 25 µM | > 25 µM | > 25 µM | > 25 µM | > 25 µM | > 25 µM | > 25 µM | > 25 µM | > 25 µM | > 25 µM | > 25 µM | > 25 µM | > 25 µM | > 25 µM | > 25 µM | > 25 µM | > 25 µM | > 25 µM | > 25 µM | > 25 µM
CC(=O)Nc1ccc(S(=O)(=O)N=S(C)C)cc1 | – | > 100 µM | – | > 100 µM | – | > 100 µM | – | > 100 µM | – | > 100 µM | – | > 100 µM | – | > 100 µM | – | > 100 µM | – | > 100 µM | – | > 100 µM
COc1ccc(C(=O)c2cc3c(N)c(C(=O)Nc4cccc(Br)c4C)sc3nc2C)cc1 | 0.0729 µM | > 100 µM | 0.0375 µM | > 100 µM | 0.0223 µM | 0.0585 µM | 0.0844 µM | > 100 µM | 0.0214 µM | – | 0.0396 µM | > 100 µM | 0.0562 µM | > 100 µM | 0.109 µM | > 100 µM | 0.0624 µM | > 100 µM | 0.0693 µM | > 100 µM
